Results taken from patent publication US12624018B1, “Inhibitors of RIPK2 and medical uses thereof” (Odyssey Therapeutics, Inc., priority 2022, dated 2026).
Where two headings read alike, the source gives them in different places.

Columns and labels:
[1] = molecular target: T1, RIPK2 enzyme (Homo sapiens, UniProt O43353); experiment: RIPK2 inhibition (ADP-Glo Kinase Assay); format: biochemical; conditions: RIPK2 5 nM, ATP 150 μM, MBP substrate, read-out: RIPK2 IC50
T1 construct: purchased Carna 09-128
T1 sequence (O43353 1-299 limits assumed): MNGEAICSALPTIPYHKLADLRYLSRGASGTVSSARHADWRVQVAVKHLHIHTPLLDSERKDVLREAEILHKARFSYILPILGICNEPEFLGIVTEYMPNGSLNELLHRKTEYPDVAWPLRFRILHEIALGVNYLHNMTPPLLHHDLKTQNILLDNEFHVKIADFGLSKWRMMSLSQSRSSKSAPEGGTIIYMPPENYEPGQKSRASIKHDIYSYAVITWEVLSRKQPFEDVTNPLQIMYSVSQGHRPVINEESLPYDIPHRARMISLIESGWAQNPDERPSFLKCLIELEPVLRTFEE
Outline: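 Human RIPK2 (5 nM) preincubated with compound 30 min at room temperature in 50 mM HEPES pH 7.5, 10 mM MgCl2, 2 mM DTT, 1 mM EGTA, 0.01% Brij-35, 0.05% BSA; native swine MBP as substrate. ADP formed quantified by ADP-Glo luminescence; percent inhibition relative to DMSO and no-enzyme controls.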

[2] = system: human NOD2 signaling; experiment: Inhibition of human NOD2 signaling in HEK-Blue-hNOD2 cells (L18-MDP stimulated, SEAP reporter); format: cell-based; conditions: NOD2 ligand stimulation, SEAP reporter, read-out: hNOD2 IC50
Experimental: Materials: Human NOD32-expressing 1TEK293 cells, HEK-Blue™-hNOD2 cells, were developed by Invivogen (catalogue number: hkb-hnod2) using co-transfection of the human NOD2 gene and an optimized secreted embryonic alkaline phosphatase (SEAP) reporter gene into HTEK293 cells. The cell maintenance medium consisted of DMEM (Giboc, 21063-029), heat inactivated FBS, penicillin (100 U/mL), streptomycin (100 μg/mL), Normocin (100 μg/mL), Blasticidin (30 μg/mL), and Zeocin (100 μg/mL). HEK-Blue™-hNOD2 cells were transferred to assay medium consisting of DMEM (Giboc, 21063-029), heat inactivated FBS, penicillin (100 U/mL) and streptomycin (100 μg/mL) prior to stimulation. Stimulation with a NOD2 ligand, L18-MDP (Invivogen, catalogue number: tlrl-lmdp) activated NF-κB and AP-1 which induced the production of SEAP. Levels of SEAP were determined with HEK-Blue™ Detection (referred to as QUANTI-Blue solution), a cell culture medium that allows for real-time detection of SEAP. QUANTI-Blue solution was prepared by adding 1 mL of QB reagent and 1 mL of QB buffer to 98 mL of sterile H2O. Test compounds were prepared into a 10 mM DMSO solution and were serially diluted into 10 points using a 3-fold dilution in a 384 well plate using a TECAN EVO200.
Method: In a 384 well plate, 40 nL of test compound was dispensed using Echo550. HEK-Blue™-hNOD2 cells (Invivogen) were prepared into a cell suspension and 40 μL of the cell suspension (12500 cells per well) was dispensed into the 384 well plate. To activate NOD2 signaling, 40 nL of L18-MDP (final concentration of 0.5 ng/mL) was added and the plate was incubated at 37° C. in a CO2 incubator for 24 hours. After the 24-hour incubation, 5 μL of the induced HEK-Blue hNOD2 cell supernatant was transferred to a new 384-well plate, centrifuged, and 45 μL of QUANTI-Blue solution was added per well and incubated for 3 hours at 37° C. SEAP levels were measured using an Ensight at 620 nm. Percent inhibition of NOD2 signaling was determined using the following equation: (high control−test compound signal)/(High control−low control)×100. The reaction high control was determined using wells with DMSO, cells, L18-MDP, and QUANTI-Blue solution. The reaction low control was determined using wells with DMSO, cells, and QUANTI-Blue solution. 4-parametric curve fit was used to determine the test compound concentration that results in 50% reduction of L18-MDP-driven human NOD2 signaling.
Using the assay described above, inhibition of hNOD2 signaling was also evaluated for GSK 2983559 (Haile at al., J. Med. Chem. 2019, 62, 14, 6482-6494), a known RIPK2 kinase inhibitor: […]

[3] = Homo sapiens, HEK-Blue hNOD2, HEK-Blue-hNOD2 cells

With `Cc1c(Oc2ccnc3ccc(S(=N)(=O)C4CC4)cc23)ccc(CC(=O)Nc2cnn(C34CC(C3)C4)c2)c1F` (single isomer, unassigned) [Compound 527] the IC50 [1] was < 2.5 nM and the IC50 ([2]; HEK-Blue-hNOD2 cells) was 0.7 nM.
For `Cc1c(Oc2ccnc3ccc(S(=N)(=O)C4CC4)cc23)ccc(CC(=O)Nc2cnn(C34CC(C3)C4)c2)c1F` (single isomer, unassigned) [Compound 528, N-(1-(bicyclo[1.1.1]pentan-1-yl)-1H-pyrazol-4-yl)-2-(4-((6-(cyclopropanesul-fonimidoyl)quinolin-4-yl)oxy)-2-fluoro-3-methylphenyl) acetamide], the IC50 [1] was < 2.5 nM and the IC50 [2, 3] was 0.8 nM.
In the case of `N=S(=O)(c1ccc2nccc(Oc3cc(F)c(CC(=O)Nc4cnn(C56CC(C5)C6)c4)cc3Cl)c2c1)C1CC1` (single isomer, unassigned) [Compound 531, N-(1-(bicyclo[1.1.1]pentan-1-yl)-1H-pyrazol-4-yl)-2-(5-chloro-4-((6-(cyclopropanesul-fonimidoyl)quinolin-4-yl)oxy)-2-fluorophenyl) acetamide], the IC50 [1] is reported as < 2.5 nM and the IC50 ([2]; HEK-Blue-hNOD2 cells) is reported as 41.6 nM.
With `N=S(=O)(c1ccc2nccc(Oc3cc(F)c(CC(=O)Nc4cnn(C56CC(C5)C6)c4)cc3Cl)c2c1)C1CC1` (single isomer, unassigned) [Compound 532, N-(1-(bicyclo[1.1.1]pentan-1-yl)-1H-pyrazol-4-yl)-2-(5-chloro-4-((6-(cyclopropanesul-fonimidoyl)quinolin-4-yl)oxy)-2-fluorophenyl) acetamide] the IC50 [1] was < 2.5 nM and the IC50 ([2]; HEK-Blue-hNOD2 cells) was 16.9 nM.
With `CC(C)(C)n1cc(NC(=O)Cc2cc(Cl)c(Oc3ccnc4ccc(S(=N)(=O)C5CC5)cc34)cc2F)cn1` (single isomer, unassigned) [Compound 533, N-(1-(tert-butyl)-1H-pyrazol-4-yl)-2-(5-chloro-4-((6-(cyclopropanesul-fonimidoyl)quinolin-4-yl)oxy)-2-fluorophenyl) acetamide] the IC50 [1] was < 2.5 nM and the IC50 [2, 3] was 10.4 nM.
For `CC(C)(C)n1cc(NC(=O)Cc2cc(Cl)c(Oc3ccnc4ccc(S(=N)(=O)C5CC5)cc34)cc2F)cn1` (single isomer, unassigned) [Compound 534, N-(1-(tert-butyl)-1H-pyrazol-4-yl)-2-(5-chloro-4-((6-(cyclopropanesulfonimidoyl)quinolin-4-yl)oxy)-2-fluorophenyl) acetamide], the IC50 [1] was < 2.5 nM and the IC50 ([2]; HEK-Blue-hNOD2 cells) was 6 nM.
For `CCS(=N)(=O)c1ccc2nccc(Oc3ccc(CC(=O)Nc4cnn(C(C)(C)C)c4)c(F)c3C)c2c1` (single isomer, unassigned) [Compound 535, N-(1-(tert-butyl)-1H-pyrazol-4-yl)-2-(4-((6-(ethylsulfonimidoyl)quinolin-4-yl)oxy)-2-fluoro-3-methylphenyl) acetamide], the IC50 [1] was < 2.5 nM and the IC50 [2, 3] was 0.8 nM.
`CCS(=N)(=O)c1ccc2nccc(Oc3ccc(CC(=O)Nc4cnn(C(C)(C)C)c4)c(F)c3C)c2c1` (single isomer, unassigned) [Compound 536, N-(1-(tert-butyl)-1H-pyrazol-4-yl)-2-(4-((6-(ethylsulfonimi-doyl)quinolin-4-yl)oxy)-2-fluoro-3-methylphenyl) acetamide] was tested, and the IC50 [1] was < 2.5 nM and the IC50 ([2]; HEK-Blue-hNOD2 cells) was 0.7 nM.
For `Cc1c(Oc2ccnc3ccc(S(=N)(=O)C(C)C)cc23)ccc(CC(=O)Nc2cnn(C(C)(C)C)c2)c1F` (single isomer, unassigned) [Compound 537, N-(1-(tert-butyl)-1H-pyrazol-4-yl)-2-(2-fluoro-3-methyl-4-((6-(propan-2-ylsulfonimidoyl)quinolin-4-yl)oxy)phenyl) acetamide], the IC50 [1] was < 2.5 nM and the IC50 [2, 3] was 0.4 nM.
With `Cc1c(Oc2ccnc3ccc(S(=N)(=O)C(C)C)cc23)ccc(CC(=O)Nc2cnn(C(C)(C)C)c2)c1F` (single isomer, unassigned) [Compound 538, N-(1-(tert-butyl)-1H-pyrazol-4-yl)-2-(2-fluoro-3-methyl-4-((6-(propan-2-ylsulfonimidoyl)quinolin-4-yl)oxy)phenyl) acetamide] the IC50 [1] was < 2.5 nM and the IC50 ([2]; HEK-Blue-hNOD2 cells) was 0.2 nM.
In the case of `Cc1c(Oc2ccnc3ccc(S(=N)(=O)C(C)(C)C)cc23)ccc(CC(=O)Nc2cnn(C(C)(C)C)c2)c1F` (single isomer, unassigned) [Compound 539, N-(1-(tert-butyl)-1H-pyrazol-4-yl)-2-(2-fluoro-3-methyl-4-((6-(2-methylpropan-2-ylsulfonimidoyl)quinolin-4-yl)oxy)phenyl) acetamide], the IC50 [1] is reported as < 2.5 nM and the IC50 ([2]; HEK-Blue-hNOD2 cells) is reported as 1.2 nM.
With `Cc1c(Oc2ccnc3ccc(S(=N)(=O)C(C)(C)C)cc23)ccc(CC(=O)Nc2cnn(C(C)(C)C)c2)c1F` (single isomer, unassigned) [Compound 540, N-(1-(tert-butyl)-1H-pyrazol-4-yl)-2-(2-fluoro-3-methyl-4-((6-(2-methylpropan-2-ylsulfonimidoyl)quinolin-4-yl)oxy)phenyl) acetamide] the IC50 [1] was < 2.5 nM and the IC50 ([2]; HEK-Blue-hNOD2 cells) was 0.5 nM.
In the case of `Cc1c(Oc2ccnc3ccc(S(=N)(=O)C4CCC4)cc23)ccc(CC(=O)Nc2cnn(C(C)(C)C)c2)c1F` (single isomer, unassigned) [Compound 541, N-(1-(tert-butyl)-1H-pyrazol-4-yl)-2-(4-((6-(cyclobutanesulf-onimidoyl)quinolin-4-yl)oxy)-2-fluoro-3-methylphenyl) acetamide], the IC50 [1] is reported as < 2.5 nM and the IC50 [2, 3] is reported as 0.3 nM.
For `Cc1c(Oc2ccnc3ccc(S(=N)(=O)C4CCC4)cc23)ccc(CC(=O)Nc2cnn(C(C)(C)C)c2)c1F` (single isomer, unassigned) [Compound 542, N-(1-(tert-butyl)-1H-pyrazol-4-yl)-2-(4-((6-(cyclobutanesulf-onimidoyl)quinolin-4-yl)oxy)-2-fluoro-3-methylphenyl) acetamide], the IC50 [1] was < 2.5 nM and the IC50 ([2]; HEK-Blue-hNOD2 cells) was 0.2 nM.
In the case of `Cc1cc(CC(=O)Nc2cnn(C(C)(C)C)c2)ccc1Oc1ccnc2ccc(S(=N)(=O)C(C)(C)C)cc12` (single isomer, unassigned) [Compound 549, N-(1-(tert-butyl)-1H-pyrazol-4-yl)-2-(3-methyl-4-((6-(2-methylpropan-2-ylsulfonimidoyl)quinolin-4-yl)oxy)phenyl) acetamide], the IC50 [1] is reported as < 2.5 nM and the IC50 [2, 3] is reported as 18.2 nM.
With `Cc1cc(CC(=O)Nc2cnn(C(C)(C)C)c2)ccc1Oc1ccnc2ccc(S(=N)(=O)C(C)(C)C)cc12` (single isomer, unassigned) [Compound 550, N-(1-(tert-butyl)-1H-pyrazol-4-yl)-2-(3-methyl-4-((6-(2-methylpropan-2-ylsulfonimidoyl)quinolin-4-yl)oxy)phenyl) acetamide] the IC50 [1] was < 2.5 nM and the IC50 ([2]; HEK-Blue-hNOD2 cells) was 11 nM.
`Cc1cc(CC(=O)Nc2cnn(C(C)(C)C)c2)ccc1Oc1ccnc2cc(F)c(S(=N)(=O)C3CC3)cc12` (single isomer, unassigned) [Compound 553, N-(1-(tert-butyl)-1H-pyrazol-4-yl)-2-(4-((6-(cyclopropane-sulfonimidoyl)-7-fluoroquinolin-4-yl)oxy)-3-methylphenyl) acetamide] was tested, and the IC50 [1] was < 2.5 nM and the IC50 [2, 3] was 5.6 nM.
For `Cc1cc(CC(=O)Nc2cnn(C(C)(C)C)c2)ccc1Oc1ccnc2cc(F)c(S(=N)(=O)C3CC3)cc12` (single isomer, unassigned) [Compound 554, N-(1-(tert-butyl)-1H-pyrazol-4-yl)-2-(4-((6-(cyclopropane-sulfonimidoyl)-7-fluoroquinolin-4-yl)oxy)-3-methylphenyl) acetamide], the IC50 [1] was < 2.5 nM and the IC50 ([2]; HEK-Blue-hNOD2 cells) was 4.9 nM.
`CCS(=N)(=O)c1ccc2nccc(Oc3ccc(CC(=O)Nc4cnn(C56CC(C5)C6)c4)cc3C)c2c1` (single isomer, unassigned) [Compound 593, N-(1-(bicyclo[1.1.1]pentan-1-yl)-1H-pyrazol-4-yl)-2-(4-((6-(ethylsulfonimidoyl)quinolin-4-yl)oxy)-3-methylphenyl) acetamide] was tested, and the IC50 [1] was < 2.5 nM and the IC50 [2, 3] was 6.7 nM.
